Measurements published in patent publication US20140107109A1, “AMINO-DIHYDROTHIAZINE AND AMINO-DIOXIDO DIHYDROTHIAZINE COMPOUNDS AS BETA-SECRETASE ANTAGONISTS AND METHODS OF USE” (Amgen Inc., priority 2012, published 2014).
Where two headings read alike, the source gives them in different places.

Assays:
Cathepsin D (Cat D) = biological target: T1, Cathepsin D (Cat D) (Homo sapiens, UniProt P07339); experiment: In vitro enzymatic Cathepsin D (Cat D) FRET assay; assay type: biochemical; conditions: read-out: CatD IC50
T1 construct: Recombinant Cat D was expressed in CHO cells; made in house; host or cells: CHO cells
T1 sequence (P07339 65-412, species assumed): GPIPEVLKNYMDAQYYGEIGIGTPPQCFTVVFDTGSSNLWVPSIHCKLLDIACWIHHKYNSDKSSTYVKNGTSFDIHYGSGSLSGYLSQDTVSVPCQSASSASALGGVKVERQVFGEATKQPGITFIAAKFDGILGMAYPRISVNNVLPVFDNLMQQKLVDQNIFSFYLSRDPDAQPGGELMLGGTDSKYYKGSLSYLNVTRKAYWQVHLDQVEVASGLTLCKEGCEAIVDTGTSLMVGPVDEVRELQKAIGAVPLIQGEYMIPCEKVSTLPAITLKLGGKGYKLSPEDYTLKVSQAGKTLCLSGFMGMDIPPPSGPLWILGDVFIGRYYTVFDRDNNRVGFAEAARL
Summary of the method: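 FRET read-out: a fluorophore/quencher-labelled peptide substrate is cleaved by 9 nM Cat D (recombinant, CHO-expressed) following a one-hour preincubation with inhibitor dilutions in DMSO. Tris buffer added to neutralize pH ends the reaction before fluorescence measurement.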

[1] = biological target: Beta Secretase enzyme (BACE1) (Homo sapiens, UniProt P56817); experiment: In vitro enzymatic BACE FRET assay; assay type: biochemical
Beta Secretase enzyme (BACE1), sequence (P56817 46-501): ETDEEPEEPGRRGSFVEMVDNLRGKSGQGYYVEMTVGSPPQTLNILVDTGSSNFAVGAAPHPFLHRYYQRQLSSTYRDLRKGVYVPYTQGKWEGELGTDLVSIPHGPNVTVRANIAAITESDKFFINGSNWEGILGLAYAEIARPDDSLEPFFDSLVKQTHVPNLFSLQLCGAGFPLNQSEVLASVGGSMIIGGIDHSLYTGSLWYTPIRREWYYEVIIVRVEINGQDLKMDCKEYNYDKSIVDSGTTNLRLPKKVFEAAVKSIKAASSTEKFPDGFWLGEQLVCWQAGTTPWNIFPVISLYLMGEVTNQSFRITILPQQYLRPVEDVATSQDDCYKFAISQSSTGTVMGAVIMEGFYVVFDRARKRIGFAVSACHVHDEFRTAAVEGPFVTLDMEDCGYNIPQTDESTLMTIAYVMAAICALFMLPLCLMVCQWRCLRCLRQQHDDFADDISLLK
Summary of the method: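 Readout: dequenched fluorescence (ex 488 nm/[…]) after neutralizing with Tris buffer. Reactions, begun by adding 50 nM quenched peptide substrate spanning the BACE cleavage site, were incubated one hour at pH 4.2 in 0.05 M acetate with 100 uM genapol and 10% final DMSO.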

[2] = test system: Aβ40 in conditioned medium of cells stably expressing Amyloid Precursor Protein (APP); experiment: In vitro BACE cell-based assay (HEK cell assay), Aβ40 sandwich ELISA; conditions: Homo sapiens, HEK293
Summary of the method: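 Aβ40 in conditioned medium was quantified by time-resolved fluorescence sandwich ELISA (pAb40 capture 3 h at 4 °C, biotin-6E10 detection 2 h at 4 °C) after 24 h compound exposure of APP-expressing cells. Doses spanned 10 points from 100 μM or 10 μM top, 0.1% DMSO; IC50 was derived from percent of control.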

[3] = average IC50, enzyme assay, read-out: BACE1 FRET assay IC50
[4] = read-out: BACE1 FRET assay IC50

| Structure (SMILES) | IC50 (Cathepsin D (Cat D)) [µM] | IC50 [1, 3] [µM] | IC50 ([2]; average IC50, HEK cell assay) [nM] | IC50 ([2]; average IC50, cell assay) [nM] | IC50 [1, 4] [µM] | IC50 ([2]; Aβ40, 24 h incubation) [nM] | IC50 [2] [nM] | IC50 [1] [µM] |
| --- | --- | --- | --- | --- | --- | --- | --- | --- |
| Cc1nc2c(Oc3ccc(F)c([C@]4(C)CS(=O)(=O)C(C)(C)C(N)=N4)c3)nccc2s1 [Example 302, (5R)-5-(2-fluoro-5-((2-methyl[1,3]thiazolo[4,5-c]pyridin-4-yl)oxy)phenyl)-2,2,5-trimethyl-5,6-dihydro-2H-1,4-thiazin-3-amine 1,1-dioxide] | 241 | 3.49 | 2870 | – | – | – | – | – |
| CC1(C)C(N)=N[C@](C)(c2cc(Sc3ncccc3F)ccc2F)CS1(=O)=O [Example 439, (5R)-5-(2-fluoro-5-((3-fluoro-2-pyridinyl)sulfanyl)phenyl)-2,2,5-trimethyl-5,6-dihydro-2H-1,4-thiazin-3-amine 1,1-dioxide] | 215 | 0.375 | – | 990 | – | – | – | – |
| CC#CCOc1cnc(C(=O)Nc2ccc(F)c([C@]3(C)CS(=O)(=O)C(C)(C)C(N)=N3)c2)cn1 [Example 26, N-(3-((3R)-5-amino-3,6,6-trimethyl-1,1-dioxido-3,6-dihydro-2H-1,4-thiazin-3-yl)-4-fluorophenyl)-5-(2-butyn-1-yloxy)-2-pyrazinecarboxamide] | 475 | – | – | – | 0.0004 | 0.05 | – | – |
| CC1(C)C(N)=N[C@](C)(c2cc(Nc3ncnc4cc(C#N)cnc34)cnc2F)CS1(=O)=O [Example 384, 4-((5-((3R)-5-amino-3,6,6-trimethyl-1,1-dioxido-3,6-dihydro-2H-1,4-thiazin-3-yl)-6-fluoro-3-pyridinyl)amino)pyrido[3,2-d]pyrimidine-7-carbonitrile] | 47.3 | – | – | – | 0.00636 | – | 23.9 | – |
| CC1(C)C(N)=N[C@](CF)(c2cc(Nc3nccc4cc(C#N)cnc34)ccc2F)CS1(=O)=O [Example 387, 8-((3-((3S)-5-amino-3-(fluoromethyl)-6,6-dimethyl-1,1-dioxido-3,6-dihydro-2H-1,4-thiazin-3-yl)-4-fluorophenyl)amino)-1,7-naphthyridine-3-carbonitrile] | 117 | – | – | – | 0.00044 | – | 5.3 | – |
| Cc1cc(-c2cnc(Oc3ccc(F)c([C@]4(C)CS(=O)(=O)C(C)(C)C(N)=N4)c3)c(F)c2)on1 [Example 256, (5R)-5-(2-fluoro-5-((3-fluoro-5-(3-methyl-5-isoxazolyl)-2-pyridinyl)oxy)phenyl)-2,2,5-trimethyl-5,6-dihydro-2H-1,4-thiazin-3-amine 1,1-dioxide] | 195 | 0.65 | – | 1820 | – | – | – | – |
| CC1(C)C(N)=N[C@](C)(c2cc(NC(=O)c3cnc(OCC(F)(F)F)cn3)ccc2F)C(F)S1(=O)=O (stereo partly drawn) [Example 333, N-(3-((3R)-5-amino-2-fluoro-3,6,6-trimethyl-1,1-dioxido-3,6-dihydro-2H-1,4-thiazin-3-yl)-4-fluorophenyl)-5-(2,2,2-trifluoroethoxy)-2-pyrazinecarboxamide] | 190 | 0.0015 | 16 | – | – | – | – | – |
| CC1(C)C(N)=N[C@](C)(c2cc(Nc3ncc(F)c4cc(C#N)cnc34)ccc2F)CS1(=O)=O [Example 76, (R)-8-((3-(5-Amino-3,6,6-trimethyl-1,1-dioxido-3,6-dihydro-2H-1,4-thiazin-3-yl)-4-fluorophenyl)amino)-5-fluoro-1,7-naphthyridine-3-carbonitrile] | > 44 | – | – | – | 0.002 | 3.9 | – | – |
| CC1(C)C(N)=N[C@@]2(c3cc(Nc4nccc5[nH]c(=O)cnc45)ccc3F)COC[C@H]2S1(=O)=O [Example 249, 5-((3-((4aS,7aS)-3-amino-2,2-dimethyl-1,1-dioxido-7,7a-dihydro-2H-furo[3,4-b][1,4]thiazin-4a(5H)-yl)-4-fluorophenyl)amino)pyrido[3,4-b]pyrazin-2(1H)-one] | 102 | 0.00636 | – | 153 | – | – | – | – |
| COc1cnc(C(=O)Nc2ccc(F)c([C@]3(C)CS(=O)(=O)C(C)C(N)=N3)c2)cn1 (stereo partly drawn) [Example 82, N-(3-((3R)-5-Amino-3,6-dimethyl-1,1-dioxido-3,6-dihydro-2H-1,4-thiazin-3-yl)-4-fluorophenyl)-5-methoxypyrazine-2-carboxamide] | > 400 | – | – | – | 0.0075 | 12.5 | – | – |
| CC1(C)C(N)=N[C@](C)(c2cc(Br)c[nH]c2=O)CS1(=O)=O [Example 169, (R)-3-(5-amino-3,6,6-trimethyl-1,1-dioxido-3,6-dihydro-2H-1,4-thiazin-3-yl)-5-bromopyridin-2(1H)-one] | > 400 | – | – | > 15600 | – | – | – | 21.1 |
| Cc1ccnc(Oc2ccc(F)c([C@]3(C)CS(=O)(=O)C(C)(C)C(N)=N3)c2)c1 [Example 264, (5R)-5-(2-fluoro-5-((4-methyl-2-pyridinyl)oxy)phenyl)-2,2,5-trimethyl-5,6-dihydro-2H-1,4-thiazin-3-amine 1,1-dioxide] | 878 | 0.18 | – | 126 | – | – | – | – |
| COc1cnc2c(Nc3cnc(F)c([C@]4(C)CS(=O)(=O)C5(CCC5)C(N)=N4)c3)nccc2n1 [Example 231, N-(5-((7R)-9-amino-7-methyl-5,5-dioxido-5-thia-8-azaspiro[3.5]non-8-en-7-yl)-6-fluoro-3-pyridinyl)-2-methoxypyrido[3,4-b]pyrazin-5-amine] | 163 | 0.00641 | – | 18.1 | – | – | – | – |

More lines, main results first:

| IC50 (Cathepsin D (Cat D)) [µM] | IC50 [1, 3] [µM] | IC50 ([2]; average IC50, HEK cell assay) [nM] | IC50 ([2]; average IC50, cell assay) [nM] | IC50 [1, 4] [µM] | IC50 ([2]; Aβ40, 24 h incubation) [nM] | IC50 [2] [nM] | Structure (SMILES) | IC50 [1] [µM] |
| --- | --- | --- | --- | --- | --- | --- | --- | --- |
| > 400 | – | – | – | 0.0088 | – | 14.6 | C[C@]1(c2cc(NC(=O)c3cnc(C(F)F)cn3)ccc2F)N=C(N)C2(CCC2)S(=O)(=O)[C@@H]1F [Example 140, N-(3-((6S,7R)-9-amino-6-fluoro-7-methyl-5,5-dioxido-5-thia-8-azaspiro[3.5]non-8-en-7-yl)-4-fluorophenyl)-5-(difluoromethyl)pyrazine-2-carboxamide] | – |
| 395 | 0.039 | – | 52.1 | – | – | – | CC1(C)C(N)=N[C@](C)(c2cc(Oc3cc(C#N)ccn3)ccc2F)CS1(=O)=O [Example 280, 2-(3-((3R)-5-amino-3,6,6-trimethyl-1,1-dioxido-3,6-dihydro-2H-1,4-thiazin-3-yl)-4-fluorophenoxy)-4-pyridinecarbonitrile] | – |
| 1330 | 0.0424 | 18.7 | – | – | – | – | COc1ccc(C(=O)Nc2ccc(F)c([C@]3(C)CS(=O)(=O)C(C)(C)C(N)=N3)c2)c(F)c1 [Example 354, N-(3-((3R)-5-amino-3,6,6-trimethyl-1,1-dioxido-3,6-dihydro-2H-1,4-thiazin-3-yl)-4-fluorophenyl)-2-fluoro-4-methoxybenzamide] | – |
| 145 | 0.184 | – | 742 | – | – | – | Cc1nc2c(Nc3ccc(F)c([C@]4(C)CS(=O)(=O)C(C)(C)C(N)=N4)c3)cccc2s1 [Example 105, (R)-5-amino-3-(2-fluoro-5-((2-methylbenzo[d]thiazol-4-yl)amino)phenyl)-3,6,6-trimethyl-3,6-dihydro-2H-1,4-thiazine 1,1-dioxide] | – |
| 1260 | 0.00042 | 44.5 | – | – | – | – | C[C@]1(F)C(N)=N[C@](C)(c2cc(NC(=O)c3cnc(OCC(F)(F)F)cn3)ccc2F)CS1(=O)=O [Example 325, N-(3-((3R,6R)-5-amino-6-fluoro-3,6-dimethyl-1,1-dioxido-3,6-dihydro-2H-1,4-thiazin-3-yl)-4-fluorophenyl)-5-(2,2,2-trifluoroethoxy)-2-pyrazinecarboxamide] | – |
| 12.2 | 0.208 | – | 360 | – | – | – | CC1(C)C(N)=N[C@](C)(c2cc(NCc3c(Cl)cnn3CC(F)(F)F)ccc2F)CS1(=O)=O [Example 109, (R)-5-amino-3-(5-(((4-chloro-1-(2,2,2-trifluoroethyl)-1H-pyrazol-5-yl)methyl)amino)-2-fluorophenyl)-3,6,6-trimethyl-3,6-dihydro-2H-1,4-thiazine 1,1-dioxide] | – |
| 103 | – | – | – | 0.0117 | – | 60.5 | Cc1c(C(=O)Nc2ccc(F)c([C@]3(CF)CS(=O)(=O)C(C)(C)C(N)=N3)c2)nc2ccc(F)cn12 [Example 393, N-(3-((3S)-5-amino-3-(fluoromethyl)-6,6-dimethyl-1,1-dioxido-3,6-dihydro-2H-1,4-thiazin-3-yl)-4-fluorophenyl)-6-fluoro-3-methylimidazo[1,2-a]pyridine-2-carboxamide] | – |
| 178 | 0.00032 | – | 0.2 | – | – | – | CC#CCOc1cnc2c(Nc3ccc(F)c([C@]4(C)CS(=O)(=O)C(C)(C)C(N)=N4)c3)nccc2n1 [Example 445, N-(3-((3R)-5-amino-3,6,6-trimethyl-1,1-dioxido-3,6-dihydro-2H-1,4-thiazin-3-yl)-4-fluorophenyl)-2-(2-butyn-1-yloxy)pyrido[3,4-b]pyrazin-5-amine] | – |
| 227 | 1.56 | – | 1150 | – | – | – | CC1(C)C(N)=N[C@](C)(c2cc(Oc3ccc(C#N)cn3)ccc2F)CS1(=O)=O [Example 282, 6-(3-((3R)-5-amino-3,6,6-trimethyl-1,1-dioxido-3,6-dihydro-2H-1,4-thiazin-3-yl)-4-fluorophenoxy)-3-pyridinecarbonitrile] | – |
